Laboratory results: US11465997B2, “Synthesis of disorazoles and analogs thereof as potent anticancer agents” (WILLIAM MARSH RICE UNIVERSITY, priority 2017, dated 2022)
Where two headings read alike, the source gives them in different places. Non-standard residues stand in square brackets, D forms with d. Residues, ends and D or L forms follow the SMILES beside them. *: point of attachment. Dolaproine = CO[C@@H]([C@@H]1CCCN1)[C@@H](C)C(=O)O; Dil = CC[C@H](C)[C@H](NC)[C@@H](CC(=O)O)OC; X1 = C[C@@H](N*)[C@@H](O)c1ccccc1; NMeV = CN[C@H](C(=O)O)C(C)C

How the values were obtained:
[1] = system: lung cancer cell lines; conditions: Jansen et al., 1994 and Elnakady et al., 2004, read-out: IC50 against lung cancer cell line; cited from earlier work
[2] = system: ovarian cancer cell lines; conditions: Jansen et al., 1994 and Elnakady et al., 2004, read-out: IC50 against ovarian cancer cell line; cited from earlier work
[3] = system: prostate cancer cell lines; conditions: Jansen et al., 1994 and Elnakady et al., 2004, read-out: IC50 against prostate cancer cell line; cited from earlier work
[4] = system: MES SA uterine sarcoma cell line; test: 72 h killing (cytotoxicity) assay, MES SA; type: cell-based, human; conditions: MES SA cells, read-out: Cytotoxic activity IC50
[5] = system: MES SA DX (MES SA cell line with marked multidrug resistance); test: 72 h killing (cytotoxicity) assay, MES SA DX; type: cell-based, human; conditions: MES DX (MES SA DX) cells, multidrug resistant, read-out: Cytotoxic activity IC50
[6] = 72 h killing (cytotoxicity) assay, HEK 293T; type: cell-based; conditions: human; 293T (HEK 293T) cells; read-out: Cytotoxic activity IC50
[7] = solubility of the product in solvents; type: physicochemical; conditions: e.g., MeOH, DMSO, DCM, CHCl3, MeCN
Protocol: To a stirred solution of compound 108 (9.0 mg, 9.0 μmol, 1.0 equiv) in DMF (300 μL) and H2O (2.3 μl, 130 μmol, 14 equiv) was added TASF (12 mg, 45 μmol, 5.0 equiv) and the reaction mixture was heated at 40° C. and stirred for 48 h. The resulting mixture was filtered through a small silica pad (10 cm, SiO2, hexanes:EtOAc 1:1→0:1). The resulting fractions containing the desired products were combined, concentrated and purified by flash column chromatography (SiO2, hexanes:EtOAc 1:1→1:4→0:1) to yield bis-(cp-thiazolyl)-disorazole B1 (7, 3.0 mg, 4.2 μmol, 46% yield) as a white foam. […] 86: Rf=0.15 (hexanes:EtOAc, 2:3); IR (film): vmax=3439, 2922, 2852, 1714, 1629, 1212, 1104, 964 cm^−1; ^1H NMR (600 MHz, DMSO-d6 with DCM) δ 8.37 (s, 2H), 6.45-6.37 (m, 2H), 6.21 (d, J=11.9 Hz, 2H), 6.15 (t, J=11.8 Hz, 2H), 5.66 (dd, J=14.1, 11.0 Hz, 2H), 5.60-5.49 (m, 4H), 5.39-5.31 (m, 2H), 5.23-5.11 (m, 4H), 4.64 (d, J=4.6 Hz, 2H), 3.73 (t, J=5.3 Hz, 2H), 2.70 (q, J=12.0 Hz, 2H), 2.29-2.22 (m, 2H), 2.22-2.13 (m, 2H), 1.82-1.73 (m, 2H), 1.64 (d, J=4.9 Hz, 6H), 0.96 (s, 6H), 0.88 (s, 6H), 0.60 (dd, J=10.4, 4.9 Hz, 4H) ppm; ^13C NMR (151 MHz, DMSO-d6 with DCM) δ 163.45, 159.37, 145.61, 142.90, 133.36, 131.70, 131.53, 127.55, 126.37, 125.78, 123.99, 118.18, 76.27, 75.30, 41.33, 27.65, 23.24, 19.05, 19.03, 18.95, 17.63, 16.64. ppm; HR-MS (ESI-TOF): calcd for C44H54O6N2S2Na^+ [M+Na]^+: 793.3316. […]

## C/C=C/[C@H](O)C(C)(C)[C@@H]1C\C=C/C=C\C=C\[C@H](OC)Cc2nc(co2)C(=O)O[C@H](C(C)(C)[C@@H](O)/C=C/C)C/C=C\[C@H]2O[C@H]2/C=C/C=C\c2nc(co2)C(=O)O1 [Disorazole A1, (2Z,4E,6S,8R,9Z,12S,20R,21E,23Z,25Z,28S)-12,28-Bis[(3S,4E)-3-hydroxy-2-methylhex-4-en-2-yl]-20-methoxy-7,13,17,29,33-pentaoxa-34,35-diazatetracyclo[29.2.1.1^15,18.0^6,8]pentatriaconta-1 (34),2,4,9,15,18 (35),21,23,25,31-decaene-14,30-dione]
[1]
  IC50: 0.0023 nM
[2]
  IC50: 0.0049 nM
[3]
  IC50: 0.0071 nM

## CC[C@H](C)[C@@H]([C@@H](CC(=O)N1CCC[C@H]1[C@H](OC)[C@@H](C)C(=O)N[C@H](C)[C@@H](O)c1ccccc1)OC)N(C)C(=O)[C@@H](NC(=O)[C@@H](NC)C(C)C)C(C)C [MMAE, monomethyl auristatin E] (H-[NMeV]V[Dil][Dolaproine]-X1)
[4]
  IC50: 0.51 nM
[5]
  IC50: 106 nM

## C/C=C/[C@H](O)C(C)(C)[C@@H]1C\C=C/C=C\C=C\[C@H](OC)Cc2nc(co2)C(=O)O[C@H](C(C)(C)[C@@H](O)/C=C/C)C/C=C\[C@H]2C[C@H]2/C=C/C=C\c2nc(co2)C(=O)O1 [compound 5, (2Z,4E,6S,8R,9Z,12S,20R,21E,23Z,25Z,28S)-12,28-Bis[(3S,4E)-3-hydroxy-2-methylhex-4-en-2-yl]-20-methoxy-13,17,29,33-tetraoxa-34,35-diazatetracyclo[29.2.1.1^15,18.0^6,8]pentatriaconta-1 (34),2,4,9,15,18 (35),21,23,25,31-decaene-14,30-dione]
[4]; Homo sapiens
  IC50: 0.11 nM
[5]; Homo sapiens
  IC50: 0.47 nM
[6]
  IC50 at 72 h: 0.06 nM

## C/C=C/[C@H](O)C(C)(C)[C@@H]1C/C=C\[C@H]2C[C@H]2/C=C/C=C\c2nc(cs2)C(=O)O[C@H](C(C)(C)[C@@H](O)/C=C/C)C/C=C\[C@H]2C[C@H]2/C=C/C=C\c2nc(cs2)C(=O)O1 [compound 86, (2Z,4E,6S,8R,9Z,12S,19Z,21E,23S,25R,26Z,29S)-12,29-Bis[(3S,4E)-3-hydroxy-2-methylhex-4-en-2-yl]-13,30-dioxa-17,34-dithia-35,36-diazapentacyclo[30.2.1.1^15,18.0^6,8.0^23,25]hexatriaconta-1 (35),2,4,9,15,18 (36),19,21,26,32-decaene-14,31-dione]
[7]
  solubility in pure solvents: insoluble in most pure solvents
